Measurements taken from patent US6924251B1, “Substituted benzoylcyclohexandiones” (Bayer Aktiengesellschaft, priority 1998, dated 2005).

What was measured:
Cyperus = assay: Pre-emergence test/greenhouse; type: in vivo; conditions: after three weeks
Method: (§1) • Solvent: 5 parts by weight of acetone • Emulsifier: 1 part by weight of alkylaryl polyglycol ether
(§2) To produce a suitable preparation of active compound, 1 part by weight of active compound is mixed with the stated amount of solvent, the stated amount of emulsifier is added and the concentrate is diluted with water to the desired concentration.
(§3) Seeds of the test plants are sown in normal soil. After approximately 24 hours, the soil is sprayed with the preparation of active compound such that the particular amount of active compound desired is applied per unit area. The concentration of the spray liquor is chosen so that the particular amount of active compound desired is applied in 1000 liters of water per hectare.
(§4) After three weeks, the degree of damage to the plants is assesssed in % damage in comparison to the development of the untreated control.

Maize [1] = assay: Pre-emergence test/greenhouse; type: in vivo; conditions: 500 g ai./ha, after three weeks
Method: as §1, §2, §3, §4

Abutilon = assay: Pre-emergence test/greenhouse; type: in vivo; conditions: after three weeks
Method: as §1, §2, §3, §4

weeds [2] = assay: Post-emergence test, activity against weeds; type: in vivo
Method: as §1, §2
(§5) Test plants which have a height of 5-15 cm are sprayed with the preparation of active compound in such a way that the particular amounts of active compound desired are applied per unit area. The concentration of the spray liquor is chosen so that the particular amounts of active compound desired are applied in 1000 1 of water/ha.
as §4

[3] = logP determination by HPLC (reversed-phase C18), EEC Directive 79/831 Annex V.A8; conditions: reversed-phase C18 HPLC column
weeds [4] = assay: Pre-emergence test, activity against weeds; type: in vivo
Method: as §1, §2, §3, §4

Amaranthus = assay: Post emergence test/greenhouse; type: in vivo; conditions: after three weeks
Method: as §1, §2, §5, §4

Sinapis = assay: Post emergence test/greenhouse; type: in vivo; conditions: after three weeks
Method: as §1, §2, §5, §4

Maize [5] = assay: Post emergence test/greenhouse; type: in vivo; conditions: after three weeks
Method: as §1, §2, §5, §4

chromatographic logP [3] | chromatographic logP ([3]; pH 2) | SMILES | % damage Cyperus (Cyperus; 500 g ai./ha) [%] | % damage Maize (Maize [1]) [%] | % damage Abutilon (Abutilon; 500 g ai./ha) [%] | activity against weeds (weeds [2]) | activity against weeds (weeds [4]) | % damage Amaranthus (Amaranthus; 500 g ai./ha) [%] | % damage Sinapis (Sinapis; 500 g ai./ha) [%] | % damage Maize (Maize [5]; 500 g ai./ha) [%] | % damage Amaranthus (Amaranthus; 1000 g ai./ha) [%] | % damage Sinapis (Sinapis; 1000 g ai./ha) [%] | % damage Maize (Maize [5]; 1000 g ai./ha) [%] | % damage Cyperus (Cyperus; 1000 g ai./ha) [%] | % damage Abutilon (Abutilon; 1000 g ai./ha) [%]
2.68 | – | CCOn1c(CC)nn(Cc2cc(Br)ccc2C(=O)C2C(=O)CCCC2=O)c1=O [compound 10] | 100 | 0 | 90 | strong activity | strong activity | 95 | 80 | 20 | – | – | – | – | –
– | – | CCOc1nn(Cc2cc(Br)ccc2C(=O)C2C(=O)CCCC2=O)c(=O)n1C [compound 15] | – | – | – | strong activity | – | – | – | – | 90 | 80 | 0 | – | –
– | 2.7 | CCOc1nn(Cc2cc(C(F)(F)F)ccc2C(=O)C2C(=O)CCCC2=O)c(=O)n1C [compound 1, 5-ethoxy-4-methyl-2-[2-(2,6-dioxo-cyclohexyl-carbonyl)-5-trifluoromethyl-benzyl]-2,4-dihydro-3H-1,2,4-triazol-3-one] | – | – | – | – | strong activity | – | – | – | – | – | – | 100 | 100
